Read-outs that look alike come from different tables or passages of the source.

Data set [1] relates to carrageenan-induced edema. Kind of data set: Inhibitory effect on carrageenan-induced edema. It is filed as in vivo, Wistar male rats. To be noted: Rattus norvegicus. The method, then: Five Wistar male rats weighing about 150 g. were used as one group. A 1% dispersion of carrageenan was injected intracutaneously into the foot pad of the right hind foot in a dose of 0.1 ml./rat. The compounds to be tested were orally administered to the rats fasted for 15 hours one hour before the carrageenan injection, or intravenously administered 2 hours […] the carrageenan injection. The volume of the foot subjected to the injection was measured by a mercury plethysmography 3 hours after the carrageenan injection on the test by oral route or 2 hours after the carrageenan injection on the test by intravenous route, and the carrageenan-induced edema was estimated from the obtained measurments.
(In general: Carrageenan injected into the paw causes an acute inflammation.)

Data set [2] can be described thus: Gastric ulceration (gastric irritation test). It is filed as in vivo, Wistar male rats. As to conditions: rat, in vivo, po. The procedure: (§1) Five Wistar male rats weighing about 150 g. were used as one group. The rats were fasted for 24 hours before the test.
(§2) Six hours after orally administration of the compounds to be tested, there was observed an existence of gastric ulcer by the method of Okabe et al (Ohyoyakuri, 16, 241 to 247 (1978)). The UD50 values were calculated from the ulcer incidence of gastric ulcer by the method of Litchfield-Wilcoxon.

A short description of the next data set: in vivo. As to conditions: mouse, po.
Data set [3] can be described thus: Hydrolysis of FP derivatives in rat plasma. It is filed as in vitro ADME. As to conditions: Table 4; rat plasma (Compound No. 10), 37° C., one hour, amount corresponding to 50 μg. of FP per 1 ml.; read-out: Hydrolyzing rate.
The subject of a further data set is gastric ulcer. The experiment in a line: Gastric ulceration (gastric irritation test). As to conditions: for UD50, gastric ulcer: Table 3, Wistar male rats, orally, six hours after administration, Litchfield-Wilcoxon; for UD50 (50% ulcerative dose): rat, in vivo, po. Format: in vivo, Wistar male rats. The method, then:
as §1, §2

The subject of a further data set is mice. Kind of data set: Acute toxicity. To be noted: 20160 min; for LD50: Table 5, male SLC-ddY mice, orally, 2 weeks observation, Litchfield Wilcoxon.
Another data set in a line: in vitro. As to conditions: human, plasma. The method, then: Each reaction mixture was incubated at 37° C. for one hour
The free FP formed by esterase in the plasma was extracted with benzene. After treating the extract with N,O-bis(trimethylsilylacetamide) for trimethylsilylation, the obtained material was determined by gas-liquid chromatography.

Setting [4] is: iv, 2 h, read-out: ED50, carrageenan-induced edema.
Where [5] appears, read: iv, read-out: ED50 (50% effective dose), carrageenan-induced edema inhibition.
Where [6] appears, read: po, read-out: ED50 (50% effective dose), carrageenan-induced edema inhibition.
The mark [7] stands for this setting: po, read-out: ED50, carrageenan-induced edema.
The mark [8] stands for this setting: Table 3, Wistar male rats, orally, six hours after administration, Litchfield-Wilcoxon, read-out: UD50, gastric ulcer.
[9] abbreviates: iv, Table 1, rats, i.v., read-out: ED50 (50% effective dose), carrageenan-induced edema inhibition.
[10] abbreviates: iv, Table 2, Wistar male rats, i.v. 2 hours after carrageenan, read-out: ED50, carrageenan-induced edema.
[11] abbreviates: po, Table 1, rats, p.o., read-out: ED50 (50% effective dose), carrageenan-induced edema inhibition.
Setting [12] is: po, Table 2, Wistar male rats, p.o. one hour before carrageenan, measured 3 hours after carrageenan, read-out: ED50, carrageenan-induced edema.

Experimental for in vivo: (§3) Eight male SLC-ddY mice 5 week old weighing 25 to 30 g. were used as one group. The compound to be tested was orally administered using a stomach tube. The animals were kept under observation for 2 weeks. The numbers of dead animals were counted and the LD50 values were calculated by the method of Litchfield Wilcoxon.
Experimental for mice: as §3

As a reminder, the ED50 is the dose at which the effect has come halfway, by size or by number of responders. What is called LD50 is the dose expected to kill half of the subjects tested. For the compound `CC(OC(=O)C(C)C)OC(=O)C(C)c1ccc(-c2ccccc2)c(F)c1` (centres unmarked) [Compound 3, 1-(isobutyryloxy)ethyl 2-(2-fluoro-4-biphenylyl)propionate], the ED50 in data set [1] (setting [4]) amounted to 0.1 mg/kg; in data set [1] (setting [5]), 0.1 mg/kg; in data set [1] (setting [6]), 1.5 mg/kg; in data set [1] (setting [7]) it was 1.5 mg/kg. Further, the TD50 at 6 h in data set [2] (setting [8]) amounted to 5 mg/kg. Moreover, in the data set “in vivo”, the LD50 at 336 h turned out to be 880 mg/kg.

For the compound `C/C=C/C(=O)OC(C)OC(=O)C(C)c1ccc(-c2ccccc2)c(F)c1` (centres unmarked) [Compound 7, 1-(crotonoyloxy)ethyl 2-(2-fluoro-4-biphenylyl)propionate], the ED50 in data set [1] (setting [4]) was determined as 0.08 mg/kg; in data set [1] (setting [5]) it was 0.08 mg/kg; in data set [1] (setting [6]) it was 0.9 mg/kg; in data set [1] (setting [7]) it was 0.9 mg/kg. The TD50 at 6 h in data set [2] (setting [8]) is 4 mg/kg. In “in vivo”, the LD50 at 336 h worked out at 800 mg/kg.

As to `CC(C(=O)OC1C(=O)OCC1(C)C)c1ccc(-c2ccccc2)c(F)c1` (centres unmarked) [Compound 10, 3,3-Dimethyl-2-[2-(2-fluoro-4-biphenylyl)propionyloxy]-γ-butyrolactone], the ED50 in data set [1] (setting [4]) was 0.05 mg/kg; in data set [1] (setting [5]), 0.05 mg/kg; in data set [1] (setting [6]) it was 0.5 mg/kg; in data set [1] (setting [7]) it was 0.5 mg/kg. Moreover, in data set [2] (setting [8]), the TD50 at 6 h is 2.5 mg/kg. The metabolised at 1 h in data set [3] was 72.3%. In the data set “in vivo”, this compound displayed an LD50 at 336 h of 670 mg/kg.

`CCC(OC(C)=O)OC(=O)C(C)c1ccc(-c2ccccc2)c(F)c1` (centres unmarked) [Compound 6, 1-(Acetoxy)propyl 2-(2-fluoro-4-biphenylyl)propionate]: the ED50 in data set [1] (setting [4]) came out at 0.1 mg/kg; in data set [1] (setting [5]), 0.1 mg/kg; in data set [1] (setting [6]), 1.5 mg/kg; in data set [1] (setting [7]) it was 1.5 mg/kg. The TD50 at 6 h in data set [2] (setting [8]) was determined as 5 mg/kg. Also, the LD50 at 336 h in “in vivo” worked out at 900 mg/kg.

Take `CC(C(=O)O)c1ccc(-c2ccccc2)c(F)c1` (centres unmarked) [FP, 2-(2-fluoro-4-biphenylyl)-propionic acid]: in the data set on gastric ulcer (360 min), the “UD50, gastric ulcer” value was found to be 1.0 mg/kg. Further, the “LD50 (50% lethal dose)” value with mice (Table 1, mice, p.o.) is 440 mg/kg. In addition, the LD50 with mice was 440 mg/kg.

`CCCCCCCCCCCCCCCC(=O)OC(C)OC(=O)C(C)c1ccc(-c2ccccc2)c(F)c1` (centres unmarked) [Compound 5, 1-(palmitoyloxy)ethyl 2-(2-fluoro-4-biphenylyl)propionate]: the ED50 in data set [1] (setting [9]), in data set [1] (setting [10]), in data set [1] (setting [11]) and in data set [1] (setting [12]) was greater than 5 mg/kg each time. The compound further had a TD50 at 6 h in data set [2] greater than 10 mg/kg. In addition, in the data set on gastric ulcer (6 h), the “UD50 (50% ulcerative dose)” value was greater than 10.0 mg/kg. In “in vivo”, the LD50 at 336 h is greater than 1000 mg/kg. In the data set on mice (mouse, in vivo, po), the “LD50 (50% lethal dose)” value was greater than 1000 mg/kg.

For `CC(C)=CC(=O)OC(C)OC(=O)C(C)c1ccc(-c2ccccc2)c(F)c1` (centres unmarked) [Compound 8, [1-(3,3-dimethylacryloyloxy)ethyl]2-(2-fluoro-4-biphenylyl)propionate], the ED50 in data set [1] (setting [9]) is 0.3 mg/kg; in data set [1] (setting [10]), 0.3 mg/kg; in data set [1] (setting [11]), 2.5 mg/kg; in data set [1] (setting [12]), 2.5 mg/kg. Also, in data set [2], the TD50 at 6 h was determined as 7 mg/kg. The compound also registered an LD50 at 336 h in “in vivo” of 1000 mg/kg.

As to `CCC(=O)OC(C)OC(=O)C(C)c1ccc(-c2ccccc2)c(F)c1` (centres unmarked) [Compound 2, 1-(Propionyloxy)ethyl 2-(2-fluoro-4-biphenylyl)propionate], the ED50 in data set [1] (setting [4]) came out at 0.06 mg/kg; in data set [1] (setting [5]), 0.06 mg/kg; in data set [1] (setting [6]) it was 0.7 mg/kg; in data set [1] (setting [7]) it was 0.7 mg/kg. For the same compound, in data set [2] (setting [8]), the TD50 at 6 h was determined as 3 mg/kg. The same compound came in with an LD50 at 336 h in the data set “in vivo” of 800 mg/kg.

`COc1ccc2c(c1)c(CC(=O)O)c(C)n2C(=O)c1ccc(Cl)cc1` [indomethacin]: the “UD50, gastric ulcer” value with gastric ulcer (360 min) stood at 5.0 mg/kg. In the data set with mice (Table 1, mice, p.o.), the “LD50 (50% lethal dose)” value is 14.0 mg/kg. Also, the LD50 in the data set on mice worked out at 14.0 mg/kg.

On to `CC(OC(=O)C(C)c1ccc(-c2ccccc2)c(F)c1)OC(=O)C(C)(C)C` (centres unmarked) [Compound 4, 1-(pivaloyloxy)ethyl 2-(2-fluoro-4-biphenylyl)propionate], for which the ED50 in data set [1] (setting [9]) was determined as 0.6 mg/kg; in data set [1] (setting [10]) it was 0.6 mg/kg; in data set [1] (setting [11]), 2.5 mg/kg; in data set [1] (setting [12]) it was 2.5 mg/kg. The compound further yielded a TD50 at 6 h in data set [2] of 10 mg/kg. In “in vivo”, this compound returned an LD50 at 336 h greater than 1000 mg/kg. Also, the “LD50 (50% lethal dose)” value in the data set on mice (mouse, in vivo, po) was greater than 1000 mg/kg.

On to `COc1ccc2c(c1)c(CC(=O)OCC(=O)O)c(C)n2C(=O)c1ccc(Cl)cc1` [acemethacin], for which the “UD50 (50% ulcerative dose)” value with gastric ulcer (360 min) was determined as 17.5 mg/kg. Also, the “LD50 (50% lethal dose)” value with mice (Table 1, mice, p.o.) was 18.0 mg/kg. The compound further displayed an LD50 with mice of 18.0 mg/kg.

For the compound `CC=CC=CC(=O)OC(C)OC(=O)C(C)c1ccc(-c2ccccc2)c(F)c1` (centres unmarked) [Compound 9, [1-(2,4-Hexadienoyloxy)ethyl]2-(2-fluoro-4-biphenylyl) propionate], the ED50 was determined as 0.3 mg/kg in data set [1] (setting [9]), 0.3 mg/kg in data set [1] (setting [10]), 2 mg/kg in data set [1] (setting [11]) and 2 mg/kg in data set [1] (setting [12]). In addition, in data set [2], the TD50 at 6 h amounted to 7 mg/kg. Further, the metabolised at 1 h in the data set “in vitro” came out at 20.4%. This compound also registered an LD50 at 336 h in “in vivo” of 1000 mg/kg.

As to `CC(=O)OC(C)OC(=O)C(C)c1ccc(-c2ccccc2)c(F)c1` (centres unmarked) [Compound 1, 1-(Acetoxy)ethyl 2-(2-fluoro-4-biphenylyl)propionate], the ED50 in data set [1] (setting [4]) was 0.05 mg/kg; in data set [1] (setting [5]), 0.05 mg/kg; in data set [1] (setting [6]), 0.5 mg/kg; in data set [1] (setting [7]), 0.5 mg/kg. Also, the TD50 at 6 h in data set [2] (setting [8]) came to 2.5 mg/kg. This compound also showed an LD50 at 336 h in the data set “in vivo” of 650 mg/kg.

The values above are taken from US4766148A, “Biphenylylpropionic acid derivative and pharmaceutical composition containing the same” (priority 1983, dated 1988).
